Data as given in US6906198B1, “Antipicornaviral compounds, their preparation and use” (Agouron Pharmaceuticals, Inc., priority 1998, dated 2005).
Like-named read-outs stand apart in the source and are kept apart here.

Experiments:
[1] = system: HRV-14; experiment: Antirhinoviral H1-HeLa cell culture assay (XTT), HRV-14; assay type: cell-based, human rhinovirus
Procedure: (§1) Antirhinoviral H1-HeLa Cell Culture Assay
(§2) In this cell protection assay, the ability of compounds to protect cells against HRV infection was measured by the XTT dye reduction method, which is described in Weislow et al., J. Natl. Cancer Inst. 1989, vol. 81, 577-586.
(§3) H1-HeLa cells were infected with HRV-14 at a multiplicity of infection (m.o.i.) of 0.13 (virus particles/cell) or mock-infected with medium only. Infected or mock-infected cells were resuspended at 8×10^5 cells per mL, and incubated with appropriate concentrations of the compounds to be tested. Two days later, XTT/PMS was added to test plates and the amount of formazan produced was quantified spectrophotometrically at 450/650 nm. The EC50 value was calculated as the concentration of compound that increased the percentage of formazan production in compound-treated, virus-infected cells to 50% of that produced by compound-free, mock-infected cells. The 50% cytotoxic dose (CC50) was calculated as the concentration of compound that decreased the percentage of formazan produced in compound-treated, mock-infected cells to 50% of that produced by compound-free, mock-infected cells. The therapeutic index (TI) was calculated by dividing the CC50 value by the EC50 value.
(§4) All strains of human rhinovirus (HRV) for use in this assay were purchased from American Type Culture Collection (ATCC), except for HRV serotype-14 (produced from the infectious cDNA clone constructed by Dr. Robert Rueckert, Institute for Molecular Virology, University of Wisconsin, Madison, Wis.). HRV stocks were propagated and viral assays were performed in H1-HeLa cells (ATCC). Cells were grown in minimal essential medium with 10% fetal bovine serum, available from Life Technologies (Gaithersburg, Md.).
The compounds were tested against control compounds WIN 51711, WIN 52084, and WIN 54954 (obtained from Sterling-Winthrop Pharmaceuticals), Pirodavir (obtained from Janssen Pharmaceuticals), and Pleconaril (prepared according to the method described in Diana et al., J. Med. Chem 1995, vol. 38, 1355). Antiviral data obtained for the test compounds are shown in Tables 1 and 3, where all data are for HRV serotype-14 unless otherwise noted in parentheses.

[2] = system: HRV serotype 1A; experiment: Antirhinoviral H1-HeLa cell culture assay (XTT), HRV-1A; assay type: cell-based, human rhinovirus; conditions: H1-HeLa cells
Procedure: as §1, §2, §3, §4
(§5) The compounds were tested against control compounds WIN 51711, WIN 52084, and WIN 54954 (obtained from Sterling-Winthrop Pharmaceuticals), Pirodavir (obtained from Janssen Pharmaceuticals), and Pleconaril (prepared according to the method described in Diana et al., J. Med. Chem 1995, vol. 38, 1355). […]

[3] = system: HRV serotype 10; experiment: Antirhinoviral H1-HeLa cell culture assay (XTT), HRV-10; assay type: cell-based, human rhinovirus; conditions: H1-HeLa cells
Procedure: as §1, §2, §3, §4, §5

[4] = Cytotoxicity in uninfected H1-HeLa cells (anticoxsackieviral assay, XTT); assay type: cell-based; conditions: human; 50% cytotoxic dose, uninfected H1-HeLa cells (Table 4)
Procedure: Coxsackievirus types A-21 (CAV-21) and B3 (CVB-3) were purchased from American Type Culture Collection (ATCC, Rockville, Md.). Virus stocks were propagated and antiviral assays were performed in H1-HeLa cells (ATCC). Cells were grown in minimal essential medium with 10% fetal bovine serum (Life Technologies, Gaithersburg, Md.).
The ability of compounds to protect cells against either CAV-21 or CVB-3 infection was measured by the XTT dye reduction method. This method is described in Weislow et al., J. Natl. Cancer Inst. 1989, vol. 81, 577-586. H1-HeLa cells were infected with CAV-21 or CVB-3 at a multiplicity of infection (m.o.i.) of 0.025 or 0.075, respectively, or mock-infected with medium only. H1-HeLa cells were plated at 4×10^4 cells per well in a 96-well plate and incubated with appropriate concentrations of the test compound. One day (CVB-3) or two days (CAV-21) later, XTT/PMS was added to test plates and the amount of formazan produced was quantified spectrophotometrically at 450/650 nm. The EC50 was calculated as the concentration of compound that increased the formazan production in compound-treated, virus-infected cells to 50% of that produced by compound-free, uninfected cells. The 50% cytotoxic dose (CC50) was calculated as the concentration of compound that decreased formazan production in compound-treated, uninfected cells to 50% of that produced in compound-free, uninfected cells. The therapeutic index (TI) was calculated by dividing the CC50 by the EC50.

[5] = Cytotoxicity in uninfected MRC-5 cells (anti-echoviral/-enteroviral assay, XTT); assay type: cell-based; conditions: human, 50% cytotoxic dose
Procedure: Echovirus type 11 (EV 11) and enterovirus type 70 (EV 70) were purchased from ATCC (Rockville, Md.). Virus stocks were propagated and antiviral assays were performed in MRC-5 cells (ATCC). Cells were grown in minimal essential medium with 10% fetal bovine serum (Life Technologies, Gaithersburg, Md.).
The ability of compounds to protect cells against either EV 11 or EV 70 infection was measured by the XTT dye reduction method (Weislow et al., J. Natl. Cancer Inst. 1989, vol. 81, 577-586). MRC-5 cells were infected with EV 11 or EV 70 at an m.o.i. of 0.003 or 0.004, respectively, or mock-infected with medium only. Infected or uninfected cells were added at 1×10^4 cells per well and incubated with appropriate concentrations of compound. Four days later, XTT/PMS was added to test plates, and the amount of formazan produced was quantified spectrophotometrically at 450/650 nm. The EC50 was calculated as the concentration of compound that increased the formazan production in compound-treated, virus-infected cells to 50% of that produced by compound-free, uninfected cells. The 50% cytotoxic dose (CC50) was calculated as the concentration of compound that decreased formazan production in compound-treated, uninfected cells to 50% of that produced in compound-free, uninfected cells. The therapeutic index (TI) was calculated by dividing the CC50 by the EC50.

[6] = Cytotoxicity in mock-infected H1-HeLa cells (antirhinoviral assay, XTT); assay type: cell-based; conditions: human, 50% cytotoxic dose
Procedure: as §3, §4

[7] = HRV serotype-14, H1-HeLa cells (Table 1), read-out: Cell Protection EC50
[8] = HRV serotype-14, H1-HeLa cells (Table 3), read-out: EC50

Structure (SMILES) | EC50 [1, 7] [nM] | EC50 [1, 8] [nM] | EC50 [2] [µM] | EC50 [3] [µM] | CC50 [4] [µM] | CC50 at 4 days [5] [µM] | CC50 at 2 days [6] [µM]
CCOC(=O)/C=C/[C@H](CCC(N)=O)NC(=O)[C@H](Cc1ccc(C)cc1)NC(=O)[C@@H](NC(=O)C1SCCS1)C(C)(C)C [(A-15)] | 220 | 220 | 7.1 | 2.7 | – | – | –
CCOC(=O)/C=C/[C@H](CCC(N)=O)NC(=O)[C@H](Cc1ccc(C)cc1)NC(=O)[C@@H](NC(=O)c1ccc[nH]1)C(C)(C)C [(A-16)] | 450 | 450 | 4.8 | 4.5 | – | – | –
CCOC(=O)/C=C/[C@H](C[C@@H]1CCNC1=O)NC(=O)[C@@H](CC(=O)[C@@H](NC(=O)c1cc(C)on1)C(C)C)Cc1ccc(F)cc1 [(B-2), Ethyl-3-{(5′-Methylisoxazole-3′-carbonyl)-L-ValΨ(COCH2)-L-(4-F-Phe)-L-((S)-Pyrrol-Ala)}-E-Propenoate] | – | – | – | – | > 100 | > 100 | > 100
